According to the NIST ThermoML archive (doi:10.1016/j.fluid.2013.01.026):
Numbers after ± are expanded uncertainties.

Details: Crystal; Melting Point Apparatus

Normal melting temperature [°C]	SMILES
337.38 ± 0.2	O=c1cc(-c2ccc(O)c(O)c2)oc2cc(O)cc(O)c12 [5,7,3',4'-tetrahydroxyflavone]
177.20 ± 0.2	C[C@@H]1O[C@@H](OC[C@H]2O[C@@H](Oc3c(-c4ccc(O)c(O)c4)oc4cc(O)cc(O)c4c3=O)[C@H](O)[C@@H](O)[C@@H]2O)[C@H](O)[C@H](O)[C@H]1O [rutin]
